pIC50: −log10 of the molar value.
Columns and labels:
Format in all cases: cell-based
MS751 cells = test: MTT cell proliferation assay, MS751 cells; conditions: MS751 cells (human cervix squamous cell carcinoma metastasis); incubation approximately 64-72 hours; read-out: MTT Assay IC50 MS 751
Method: (§1) The MTT cell proliferation assay was used to study the cytotoxic properties of the compounds. The assay was performed according to the method described by Roche Molecular Biochemicals, with minor modifications. The assay is based on the cleavage of the tetrazolium salt, MTT, in the presence of an electron-coupling reagent. The water-insoluble formazan salt produced must be solubilized in an additional step. Cells grown in a 96-well tissue culture plate were incubated with the MTT solution for approximately 4 hours. After this incubation period, a water-insoluble formazan dye formed. After solubilization, the formazan dye was quantitated using a scanning multi-well spectrophotometer (ELISA reader). […] The cells were seeded at 5,000-10,000 cells in each well of 96-well plate in 100 μL of fresh culture medium and were allowed to attach overnight. The stock solutions of the compounds were diluted in 100 μL cell culture medium to obtain eight concentrations of each test compound, ranging from 1 nM to 30 μM. […] All optical densities were measured at 490 nm using a Vmax Kinetic Microplate Reader (Molecular Devices). In most cases, the assay was performed in duplicate and the results were presented as a mean percent inhibition to the negative control±SE. The following formula was used to calculate the percent of inhibition: Inhibition (%)=(1−(ODo/OD))×100.
(§2) The compounds were tested against MS751, Z138 and 3T3 cells. The MS751 cell line is derived from a metastasis to lymph node of human cervix from a patient diagnosed with squameous cell carcinoma of the cervix. The Z138 cell line is a mature B-cell acute lymphoblastic leukemia cell line derived from a patient with chronic lumphocytic leukemia. 3T3 cells are standard fibroblast cells; they were originally isolated from Swiss mouse embryo tissue.

Z138 cells = test: MTT cell proliferation assay, Z138 cells; conditions: Homo sapiens, Z-138; Z138 cells (mantle cell lymphoma line); incubation approximately 64-72 hours
Method: as §1, §2

3T3 cells = test: MTT cell proliferation assay, 3T3 cells; conditions: NIH3T3; 3T3 fibroblast cells (Swiss mouse embryo); incubation approximately 64-72 hours
Method: as §1, §2

Structure (SMILES) | pIC50 (MS751 cells) | pIC50 (Z138 cells) | pIC50 (3T3 cells)
Nc1ccc(/C=C/C(=O)NCc2cc3cc(-c4ccc(C(=O)N5CCC(F)(F)C5)cc4)cc(C(F)(F)F)c3s2)cn1 [compound 520, (E)-3-(6-aminopyridin-3-yl)-N-((5-(4-(3,3-difluoropyrrolidine-1-carbonyl)phenyl)-7-(trifluoromethyl)benzo[b]thiophen-2-yl)methyl)acrylamide] | 5.00 to 5.30 | 5.30 to 6.00 | < 5.00
Nc1ccc(/C=C/C(=O)NCc2cc3cc(-c4ccc(C(=O)N5CCC(O)(C(F)(F)F)CC5)cc4)cc(C(F)(F)F)c3s2)cn1 [compound 521, (E)-3-(6-aminopyridin-3-yl)-N-((5-(4-(4-hydroxy-4-(trifluoromethyl)piperidine-1-carbonyl)phenyl)-7-(trifluoromethyl)benzo[b]thiophen-2-yl)methyl)acrylamide] | 5.30 to 6.00 | 5.30 to 6.00 | < 5.00
CC1(F)CCN(C(=O)c2ccc(-c3cc(C(F)(F)F)c4sc(CNC(=O)/C=C/c5ccc(N)nc5)cc4c3)cc2)C1 (stereo not drawn) [compound 522, (E)-3-(6-aminopyridin-3-yl)-N-((5-(4-(3-fluoro-3-methylpyrrolidine-1-carbonyl)phenyl)-7-(trifluoromethyl)benzo[b]thiophen-2-yl)methyl)acrylamide] | 5.00 to 5.30 | 5.30 to 6.00 | < 5.00
CC1(C)COCCN1C(=O)c1ccc(-c2cc(C(F)(F)F)c3sc(CNC(=O)/C=C/c4ccc(N)nc4)cc3c2)cc1 [compound 523, (E)-3-(6-aminopyridin-3-yl)-N-((5-(4-(3,3-dimethylmorpholine-4-carbonyl)phenyl)-7-(trifluoromethyl)benzo[b]thiophen-2-yl)methyl)acrylamide] | 5.30 to 6.00 | 5.30 to 6.00 | < 5.00
Nc1ccc(/C=C/C(=O)NCc2cc3cc(-c4ccc(C(=O)N5CC(F)(F)C5)cc4)cc(C(F)(F)F)c3s2)cn1 [compound 524, (E)-3-(6-aminopyridin-3-yl)-N-((5-(4-(3,3-difluoroazetidine-1-carbonyl)phenyl)-7-(trifluoromethyl)benzo[b]thiophen-2-yl)methyl)acrylamide] | < 5.00 | < 5.00 | < 5.00
Nc1ccc(/C=C/C(=O)NCc2cc3cc(-c4ccc(C(=O)N5CC[C@H](F)C5)cc4)cc(C(F)(F)F)c3s2)cn1 [compound 525, (S,E)-3-(6-aminopyridin-3-yl)-N-((5-(4-(3-fluoropyrrolidine-1-carbonyl)phenyl)-7-(trifluoromethyl)benzo[b]thiophen-2-yl)methyl)acrylamide] | 5.30 to 6.00 | 5.30 to 6.00 | < 5.00
CC1(C)CN(C(=O)c2ccc(-c3cc(C(F)(F)F)c4sc(CNC(=O)/C=C/c5ccc(N)nc5)cc4c3)cc2)CCO1 [compound 526, (E)-3-(6-aminopyridin-3-yl)-N-((5-(4-(2,2-dimethylmorpholine-4-carbonyl)phenyl)-7-(trifluoromethyl)benzo[b]thiophen-2-yl)methyl)acrylamide] | 5.30 to 6.00 | > 6.00 | < 5.00
Nc1ccc(/C=C/C(=O)NCc2cc3cc(-c4ccc(C(=O)N5CC6(C5)CC(F)(F)C6)cc4)cc(C(F)(F)F)c3s2)cn1 [compound 527, (E)-3-(6-aminopyridin-3-yl)-N-((5-(4-(6,6-difluoro-2-azaspiro[3.3]heptane-2-carbonyl)phenyl)-7-(trifluoromethyl)benzo[b]thiophen-2-yl)methyl)acrylamide] | 5.30 to 6.00 | 5.30 to 6.00 | < 5.00
CC1(O)CCN(C(=O)c2ccc(-c3cc(C(F)(F)F)c4sc(CNC(=O)/C=C/c5ccc(N)nc5)cc4c3)cc2)CC1 [compound 528, (E)-3-(6-aminopyridin-3-yl)-N-((5-(4-(4-hydroxy-4-methylpiperidine-1-carbonyl)phenyl)-7-(trifluoromethyl)benzo[b]thiophen-2-yl)methyl)acrylamide] | 5.30 to 6.00 | > 6.00 | < 5.00
Nc1ccc(/C=C/C(=O)NCc2cc3cc(-c4ccc(C(=O)N5CCC(F)CC5)cc4)cc(C(F)(F)F)c3s2)cn1 [compound 529, (E)-3-(6-aminopyridin-3-yl)-N-((5-(4-(4-fluoropiperidine-1-carbonyl)phenyl)-7-(trifluoromethyl)benzo[b]thiophen-2-yl)methyl)acrylamide] | < 5.00 | < 5.00 | < 5.00
Nc1ccc(/C=C/C(=O)NCc2nc3cc(-c4ccc(C(=O)N5CCC(F)(F)CC5)cn4)cc(C(F)(F)F)c3[nH]2)cn1 [compound 530, (E)-3-(6-aminopyridin-3-yl)-N-((5-(5-(4,4-difluoropiperidine-1-carbonyl)pyridin-2-yl)-7-(trifluoromethyl)-1H-benzo[d]imidazol-2-yl)methyl)acrylamide] | < 5.00 | < 5.00 | < 5.00
Cn1c(CNC(=O)/C=C/c2ccc(N)nc2)nc2c(C(F)(F)F)cc(-c3ccc(C(=O)N4CCC(F)(F)CC4)cn3)cc21 [compound 531, (E)-3-(6-aminopyridin-3-yl)-N-((6-(5-(4,4-difluoropiperidine-1-carbonyl)pyridin-2-yl)-1-methyl-4-(trifluoromethyl)-1H-benzo[d]imidazol-2-yl)methyl)acrylamide] | < 5.00 | < 5.00 | < 5.00
Nc1ccc(/C=C/C(=O)NCc2nc3cc(-c4ccc(C(=O)N5CCC(F)(F)CC5)cn4)cc(C(F)(F)F)c3s2)cn1 [compound 532, (E)-3-(6-aminopyridin-3-yl)-N-((5-(5-(4,4-difluoropiperidine-1-carbonyl)pyridin-2-yl)-7-(trifluoromethyl)benzo[d]thiazol-2-yl)methyl)acrylamide] | > 6.00 | > 6.00 | < 5.00
Nc1ccc(/C=C/C(=O)NCc2nc3cc(-c4ccc(C(=O)N5CCC(F)(F)CC5)cc4)cc(C(F)(F)F)c3s2)cn1 [compound 533, (E)-3-(6-aminopyridin-3-yl)-N-((5-(4-(4,4-difluoropiperidine-1-carbonyl)phenyl)-7-(trifluoromethyl)benzo[d]thiazol-2-yl)methyl)acrylamide] | > 6.00 | > 6.00 | < 5.00
Nc1ccc(/C=C/C(=O)NCCc2cc3cc(-c4ccc(C(=O)N5CCC(F)(F)CC5)cn4)cc(C(F)(F)F)c3s2)cn1 [compound 534, (E)-3-(6-aminopyridin-3-yl)-N-(2-(5-(5-(4,4-difluoropiperidine-1-carbonyl)pyridin-2-yl)-7-(trifluoromethyl)benzo[b]thiophen-2-yl)ethyl)acrylamide] | > 6.00 | > 6.00 | > 6.00
Nc1ccc(/C=C/C(=O)NCc2nc3cc(-c4ccc(C(=O)N5CCC(F)(F)CC5)cc4)cc(-c4ccc(F)cc4)c3s2)cn1 [compound 535, (E)-3-(6-aminopyridin-3-yl)-N-((5-(4-(4,4-difluoropiperidine-1-carbonyl)phenyl)-7-(4-fluorophenyl)benzo[d]thiazol-2-yl)methyl)acrylamide] | 5.30 to 6.00 | 5.30 to 6.00 | < 5.00
Nc1ccc(/C=C/C(=O)NCc2cc3cc(-c4ccc(C(=O)N5CCC(F)(F)CC5)cc4)cc(-c4ccc(F)cc4)c3s2)cn1 [compound 536, (E)-3-(6-aminopyridin-3-yl)-N-((5-(4-(4,4-difluoropiperidine-1-carbonyl)phenyl)-7-(4-fluorophenyl)benzo[b]thiophen-2-yl)methyl)acrylamide] | > 6.00 | > 6.00 | < 5.00

Source: patent US20170369470A1, “Cyclic Compounds and Uses Thereof” (Karyopharm Therapeutics Inc., priority 2014, published 2017)
